Structures can show the parent of a compound that is named as a salt.
Key:
[1] = test system: IGROV-1; assay: MTS Assay, cell proliferation analysis (IGROV-1); format: cell-based; details: Homo sapiens; IGROV-1 cells; 72 hours; 10 Percent FBS
Protocol: (§1) Cell proliferation analysis. Cell survival was determined by the MTS assay. Briefly, cells were plated in a 96-well plate at 2,000-10,000 cells per well, cultured for 24 hours in complete growth medium, and then treated with representative compounds of the invention or combinations thereof for 72 hours. MTS was added and incubated for 4 hours, followed by assessment of cell viability by using the microplate reader at 570 nm. Data were normalized to untreated controls and analyzed.

[2] = test system: AN3-CA; assay: MTS Assay, cell proliferation analysis (AN3-CA); format: cell-based; details: Homo sapiens; AN3-CA cells; 72 hours; 10 Percent FBS
Protocol: as §1

[3] = test system: A2780; assay: MTS Assay, cell proliferation analysis (A2780); format: cell-based; details: Homo sapiens; A2780 cells; 72 hours; 10 Percent FBS
Protocol: as §1

[4] = target: AKT1 (Homo sapiens (Human), UniProt P31749); assay: Inactive Akt Alpha Screen Assay; details: non *labeled: Akt Alpha Screen assay; read-out: AKT1 biochemical assay, IC50
Outline: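 AKT1 activated in situ by PDK1, MAPKAPK2, lipid vesicles and ATP, then phosphorylating biotinylated crosstide for 30 min at room temperature. Stopped with 10 mM EDTA; phosphopeptide detected by AlphaScreen using phospho-AKT substrate antibody (1:350), Protein A acceptor and streptavidin donor beads, 90 min dark, ex 640/em 570 nm.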

Sequence of AKT1 (P31749 whole entry): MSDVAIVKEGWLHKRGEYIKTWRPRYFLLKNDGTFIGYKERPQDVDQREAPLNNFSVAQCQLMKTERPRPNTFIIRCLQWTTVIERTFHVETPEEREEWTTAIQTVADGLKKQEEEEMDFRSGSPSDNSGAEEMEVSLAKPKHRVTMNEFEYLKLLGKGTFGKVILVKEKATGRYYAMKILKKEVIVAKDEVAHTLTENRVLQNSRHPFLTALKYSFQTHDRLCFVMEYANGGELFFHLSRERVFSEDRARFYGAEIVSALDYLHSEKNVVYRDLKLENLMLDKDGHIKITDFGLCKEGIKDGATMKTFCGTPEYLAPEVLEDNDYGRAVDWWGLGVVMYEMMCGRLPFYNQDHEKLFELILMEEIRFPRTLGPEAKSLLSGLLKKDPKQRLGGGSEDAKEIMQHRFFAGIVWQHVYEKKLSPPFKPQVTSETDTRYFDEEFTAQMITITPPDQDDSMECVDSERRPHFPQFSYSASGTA

Compound	IC50 [1]	IC50 [2]	IC50 [3]	IC50 [4]
O=C(Nc1ccc(-c2nnc3n2-c2cccnc2Nc2ccccc2-3)cc1)c1ccc(F)cc1 [Example 56, N-(4-(9H-benzo[f]pyrido[2,3-b][1,2,4]triazolo[4,3-d][1,4]diazepin-3-yl)phenyl)-4-fluorobenzamide]	70 µM	28 µM	14 µM	0.11 µM
O=C(NCCc1cccs1)NC1CCN(Cc2ccc(-c3nnc4n3-c3cccnc3Nc3ccccc3-4)cc2)CC1 [Example 182, 1-(1-(4-(9H-benzo[f]pyrido[2,3-b][1,2,4]triazolo[4,3-d][1,4]diazepin-3-yl)benzyl)piperidin-4-yl)-3-(2-(thiophen-2-yl)ethyl)urea]		28 µM	10 µM	0.75 µM
c1ccc(-n2cc(COCc3ccc(-c4nnc5n4-c4cccnc4Nc4ccccc4-5)cc3)nn2)cc1 [Example 186, 3-(4-(((1-phenyl-1H-1,2,3-triazol-4-yl)methoxy)methyl)phenyl)-9H-benzo[f]pyrido[2,3-b][1,2,4]triazolo[4,3-d][1,4]diazepine]		4 µM	3 µM	0.49 µM
c1ccc(-c2nnc(C3CCN(Cc4ccc(-c5nnc6n5-c5cccnc5Nc5ccccc5-6)cc4)CC3)[nH]2)nc1 [Example 63, 3-(4-((4-(5-(pyridin-2-yl)-4H-1,2,4-triazol-3-yl)piperidin-1-yl)methyl)phenyl)-9H-benzo[f]pyrido[2,3-b][1,2,4]triazolo[4,3-d][1,4]diazepine]	10 µM	34 µM	17 µM	0.084 µM
O=C(Nc1ccc(-c2nnc3n2-c2cccnc2Nc2ccccc2-3)cc1)c1ccccc1 [Example 59, N-(4-(9H-benzo[f]pyrido[2,3-b][1,2,4]triazolo[4,3-d][1,4]diazepin-3-yl)phenyl)benzamide]		28 µM	32 µM	0.07 µM
Cc1ccc(S(=O)(=O)NC2(c3ccc(-c4nnc5n4-c4cccnc4Nc4ccccc4-5)cc3)CCC2)cc1 [Example 198, N-(1-(4-(9H-benzo[f]pyrido[2,3-b][1,2,4]triazolo[4,3-d][1,4]diazepin-3-yl)phenyl)cyclobutyl)-4-methylbenzenesulfonamide]		17 µM	12 µM	0.34 µM
c1ccc2c(c1)Nc1ncccc1-n1c(-c3ccc(CN4CCC(c5c[nH]c6ccccc56)CC4)cc3)nnc1-2 [Example 187, 3-(4-((4-(1H-indol-3-yl)piperidin-1-yl)methyl)phenyl)-9H-benzo[f]pyrido[2,3-b][1,2,4]triazolo[4,3-d][1,4]diazepine]		8 µM	6 µM	0.5 µM
O=S(=O)(NC1CCN(Cc2ccc(-c3nnc4n3-c3cccnc3Nc3ccccc3-4)cc2)CC1)c1ccc2c(c1)OCCO2 [Example 156, N-(1-(4-(9H-benzo[f]pyrido[2,3-b][1,2,4]triazolo[4,3-d][1,4]diazepin-3-yl)benzyl)piperidin-4-yl)-2,3-dihydrobenzo[b][1,4]dioxine-6-sulfonamide]		20 µM	15 µM	2 µM
NC1(c2ccc(-c3nnc4n3-c3cccnc3Nc3ccc(Br)cc3-4)cc2)CCC1 [Example 219, 1-(4-(12-bromo-9H-benzo[f]pyrido[2,3-b][1,2,4]triazolo[4,3-d][1,4]diazepin-3-yl)phenyl)cyclobutanamine]	10 µM	45 µM	16 µM	0.13 µM
Cc1ccc(S(=O)(=O)NCc2ccc(-c3nnc4n3-c3cccnc3Nc3ccccc3-4)cc2)cc1 [Example 118, N-(4-(9H-benzo[f]pyrido[2,3-b][1,2,4]triazolo[4,3-d][1,4]diazepin-3-yl)benzyl)-4-methylbenzenesulfonamide]		28 µM	14 µM	0.11 µM
O=S(=O)(NC1(c2ccc(-c3nnc4n3-c3cccnc3Nc3ccccc3-4)cc2)CCC1)c1ccccc1 [Example 195, N-(1-(4-(9H-benzo[f]pyrido[2,3-b][1,2,4]triazolo[4,3-d][1,4]diazepin-3-yl)phenyl)cyclobutyl)benzenesulfonamide]		16 µM	11 µM	0.28 µM
O=C(NC1(c2ccc(-c3nnc4n3-c3cccnc3Nc3ccccc3-4)cc2)CCC1)c1ccccc1 [Example 193, N-(1-(4-(9H-benzo[f]pyrido[2,3-b][1,2,4]triazolo[4,3-d][1,4]diazepin-3-yl)phenyl)cyclobutyl)benzamide]		22 µM	12 µM	0.073 µM
CN(C)c1ccc(-c2nnc3n2-c2cccnc2Nc2ccccc2-3)cc1 [hydrochloride]	90 µM		17 µM	1.6 µM
O=c1[nH]c2ccccc2n1C1CCN(Cc2ccc(-c3nnc4n3-c3ccccc3Nc3ccccc3-4)cc2)CC1 [Example 128, 1-(1-(4-(9H-dibenzo[b,f][1,2,4]triazolo[4,3-d][1,4]diazepin-3-yl)benzyl)piperidin-4-yl)-1H-benzo[d]imidazol-2(3H)-one]	> 100 µM		11 µM	0.94 µM
O=C(NCc1ccc(-c2nnc3n2-c2cccnc2Nc2ccccc2-3)cc1)Nc1ccccc1F [Example 121, 1-(4-(9H-benzo[f]pyrido[2,3-b][1,2,4]triazolo[4,3-d][1,4]diazepin-3-yl)benzyl)-3-(2-fluorophenyl)urea]		27 µM	16 µM	0.31 µM
O=C(Nc1cccc(C(F)(F)F)c1)NC1CCN(Cc2ccc(-c3nnc4n3-c3cccnc3Nc3ccccc3-4)cc2)CC1 [Example 174, 1-(1-(4-(9H-benzo[f]pyrido[2,3-b][1,2,4]triazolo[4,3-d][1,4]diazepin-3-yl)benzyl)piperidin-4-yl)-3-(3-(trifluoromethyl)phenyl)urea]		13 µM	8 µM	0.63 µM
O=S(=O)(NCc1ccc(-c2nnc3n2-c2cccnc2Nc2ccccc2-3)cc1)c1cccc(Cl)c1 [Example 116, N-(4-(9H-benzo[f]pyrido[2,3-b][1,2,4]triazolo[4,3-d][1,4]diazepin-3-yl)benzyl)-3-chlorobenzenesulfonamide]		23 µM	21 µM	0.15 µM
Clc1ccc2nc(CCNCc3ccc(-c4nnc5n4-c4cccnc4Nc4ccccc4-5)cc3)[nH]c2c1 [Example 203, N-(4-(9H-benzo[f]pyrido[2,3-b][1,2,4]triazolo[4,3-d][1,4]diazepin-3-yl)benzyl)-2-(6-chloro-1H-benzo[d]imidazol-2-yl)ethanamine]		13 µM	10 µM	0.15 µM
COc1cccc(S(=O)(=O)NCc2ccc(-c3nnc4n3-c3cccnc3Nc3ccccc3-4)cc2)c1 [Example 114, N-(4-(9H-benzo[f]pyrido[2,3-b][1,2,4]triazolo[4,3-d][1,4]diazepin-3-yl)benzyl)-3-methoxybenzenesulfonamide]		25 µM	16 µM	0.14 µM
ClCc1ccc(-c2nnc3n2-c2cccnc2Nc2ccccc2-3)cc1 [Example 127, 3-(4-(chloromethyl)phenyl)-9H-benzo[f]pyrido[2,3-b][1,2,4]triazolo[4,3-d][1,4]diazepine]	13 µM		9 µM	1.9 µM
Cc1ccc(NC(=O)NC2CCN(Cc3ccc(-c4nnc5n4-c4cccnc4Nc4ccccc4-5)cc3)CC2)cc1 [Example 168, 1-(1-(4-(9H-benzo[f]pyrido[2,3-b][1,2,4]triazolo[4,3-d][1,4]diazepin-3-yl)benzyl)piperidin-4-yl)-3-(p-tolyl)urea]		22 µM	15 µM	0.44 µM
Cc1cccc(S(=O)(=O)NCc2ccc(-c3nnc4n3-c3cccnc3Nc3ccccc3-4)cc2)c1 [Example 115, N-(4-(9H-benzo[f]pyrido[2,3-b][1,2,4]triazolo[4,3-d][1,4]diazepin-3-yl)benzyl)-3-methylbenzenesulfonamide]		28 µM	16 µM	0.11 µM
O=S(=O)(NCc1ccc(-c2nnc3n2-c2cccnc2Nc2ccccc2-3)cc1)c1ccc(F)cc1 [Example 117, N-(4-(9H-benzo[f]pyrido[2,3-b][1,2,4]triazolo[4,3-d][1,4]diazepin-3-yl)benzyl)-4-fluorobenzenesulfonamide]		37 µM	19 µM	0.12 µM
O=C(NCCc1ccc(-c2nnc3n2-c2cccnc2Nc2ccccc2-3)cc1)Nc1ccccc1 [Example 110, 1-(4-(9H-benzo[f]pyrido[2,3-b][1,2,4]triazolo[4,3-d][1,4]diazepin-3-yl)phenethyl)-3-phenylurea]		8 µM	6 µM	0.12 µM
Fc1ccc2c(CCNCc3ccc(-c4nnc5n4-c4cccnc4Nc4ccccc4-5)cc3)c[nH]c2c1 [Example 202, N-(4-(9H-benzo[f]pyrido[2,3-b][1,2,4]triazolo[4,3-d][1,4]diazepin-3-yl)benzyl)-2-(6-fluoro-1H-indol-3-yl)ethanamine]		15 µM	4 µM	0.21 µM
COc1cccc(NC(=O)NCc2ccc(-c3nnc4n3-c3cccnc3Nc3ccccc3-4)cc2)c1 [Example 123, 1-(4-(9H-benzo[f]pyrido[2,3-b][1,2,4]triazolo[4,3-d][1,4]diazepin-3-yl)benzyl)-3-(3-methoxyphenyl)urea]		48 µM	27 µM	0.13 µM

— patent publication US8541407B2 (ArQule, Inc., priority 2010, dated 2013)
